The target in assay [1] is T1, MglA–SspA complex (heterodimer) (Francisella tularensis, UniProt Q5NFG1+Q5NHJ6).
The target in assay [2] is T1, MglA–SspA complex (heterodimer). Put plainly: biochemical.

The structures appear in SMILES notation.

The Kd is the equilibrium constant for the complex coming apart.

T1 sequence (Q5NFG1 1-205): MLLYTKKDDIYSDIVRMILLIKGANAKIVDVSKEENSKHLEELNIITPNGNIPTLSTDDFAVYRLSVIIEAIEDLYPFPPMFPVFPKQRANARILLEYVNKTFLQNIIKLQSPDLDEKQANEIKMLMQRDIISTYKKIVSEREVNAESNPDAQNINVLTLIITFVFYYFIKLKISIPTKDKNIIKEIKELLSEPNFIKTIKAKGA
T1 sequence (Q5NHJ6 1-210): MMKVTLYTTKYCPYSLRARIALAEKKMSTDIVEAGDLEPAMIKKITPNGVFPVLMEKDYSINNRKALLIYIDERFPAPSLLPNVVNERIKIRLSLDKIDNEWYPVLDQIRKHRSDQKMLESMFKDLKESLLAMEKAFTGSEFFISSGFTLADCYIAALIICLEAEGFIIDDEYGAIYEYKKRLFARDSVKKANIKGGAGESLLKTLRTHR

On to `Nc1nc2c(ncn2[C@@H]2O[C@H](COP(=O)(O)OP(=O)(O)OP(=O)(O)O)[C@@H](O)[C@H]2O)c(=O)[nH]1` [GTP], for which the “DRaCALA competition against 32P-ppGpp” value in assay [1] was “GTP competed weakly, and ATP, CTP, and UTP showed no detectable competition”.
In turn, `Nc1nc2c(ncn2[C@@H]2O[C@H](COP(=O)(O)OP(=O)(O)O)[C@@H](OP(=O)(O)OP(=O)(O)O)[C@H]2O)c(=O)[nH]1` [ppGpp] displayed a Kd in assay [2] of around 12 µM.

The values above are taken from article PMC5630020 (Genes & Development, 2017).
